The results in this text go back to ChEMBL document CHEMBL5550222, “Synthesis and Biological Evaluation of Novel Psidium Meroterpenoid Derivatives against Cisplatin-Induced Acute Kidney Injury” (J Med Chem, 2024).

What is called IC50 is the point on the concentration scale where inhibition reaches its midpoint.

Series [1] concerns HK-2. Nature of the series: Protection against cisplatin-induced nephrotoxicity in human HK-2 cells assessed as cell viability at 1 uM preincubated with compound for 2 hrs followed by cisplatin induction and measured after 72 hrs by MTT assay (reference value: 45.1 +/- 3.2%). To be noted: time 74 hrs, read-out: Activity. Format: functional. (In general: Formazan colour is commonly taken as a measure of viable cells.)

Series [2] deals with HK-2. The series is described as follows: Protection against cisplatin-induced nephrotoxicity in human HK-2 cells at 5 to 10 uM preincubated with compound for 2 hrs followed by cisplatin induction and measured after 72 hrs by MTT assay. The settings on record: dose 5-10 µM, time 74.0 hrs. In kind it is functional, cell-based.
In series [3] the test system is HK-2. Nature of the series: Protection against cisplatin-induced nephrotoxicity in human HK-2 cells assessed as cell viability at 10 uM preincubated with compound for 2 hrs followed by cisplatin induction and measured after 72 hrs by MTT assay (reference value: 45.1 +/- 3.2%). In kind it is functional. To be noted: time 74 hrs, read-out: Activity.
A short description of series [4]: Cytotoxicity against human HK-2 cells incubated for 72 hrs by MTT assay. In kind it is toxicity, cell-based.
Series [5] deals with HK-2. Nature of the series: Protection against cisplatin-induced nephrotoxicity in human HK-2 cells assessed as cell viability at 5 uM preincubated with compound for 2 hrs followed by cisplatin induction and measured after 72 hrs by MTT assay (reference value: 45.1 +/- 3.2%). In kind it is functional. To be noted: time 74 hrs, read-out: Activity.
Series [6] deals with HK-2. The series is described as follows: Protection against cisplatin-induced nephrotoxicity in human HK-2 cells assessed as cell viability at 5 uM preincubated with compound for 2 hrs followed by cisplatin induction and measured after 72 hrs by MTT assay (reference value: 37.37 +/- 1.35%). Format: functional. The settings on record: time 74 hrs, read-out: Activity.
Series [7] deals with HK-2. Nature of the series: Protection against cisplatin-induced nephrotoxicity in human HK-2 cells assessed as cell viability at 10 uM preincubated with compound for 2 hrs followed by cisplatin induction and measured after 72 hrs by MTT assay (reference value: 37.37 +/- 1.35%). In kind it is functional. To be noted: time 74 hrs, read-out: Activity.
Series [8] relates to HK-2. The series is described as follows: Protection against cisplatin-induced nephrotoxicity in human HK-2 cells assessed as cell viability at 1 uM preincubated with compound for 2 hrs followed by cisplatin induction and measured after 72 hrs by MTT assay (reference value: 37.37 +/- 1.35%). In kind it is functional. The settings on record: time 74 hrs, read-out: Activity.
In series [9] the target is T1, Tyrosine-protein phosphatase non-receptor type 1 (Homo sapiens, UniProt P18031).
T1 sequence (P18031 whole entry): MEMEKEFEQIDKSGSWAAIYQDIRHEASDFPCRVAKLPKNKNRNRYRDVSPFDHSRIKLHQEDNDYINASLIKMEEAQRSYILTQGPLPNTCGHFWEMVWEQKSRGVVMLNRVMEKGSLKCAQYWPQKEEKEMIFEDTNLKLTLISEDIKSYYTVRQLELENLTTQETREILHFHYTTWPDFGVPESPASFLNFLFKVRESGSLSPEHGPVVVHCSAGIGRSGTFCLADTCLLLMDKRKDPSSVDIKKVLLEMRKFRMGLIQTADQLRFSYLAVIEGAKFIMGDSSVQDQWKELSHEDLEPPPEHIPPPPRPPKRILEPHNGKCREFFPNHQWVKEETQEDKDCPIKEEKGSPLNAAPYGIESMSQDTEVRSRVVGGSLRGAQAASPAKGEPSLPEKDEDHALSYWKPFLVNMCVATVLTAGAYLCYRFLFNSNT
The series is described as follows: Inhibition of PTP1B (unknown origin).

Series [10] in a line: Antitumor activity against cisplatin-induced mouse Lewis lung carcinoma cell line xenografted C57BL/6J mouse assessed as reduction in tumor mass at 50 mg/kg, po preadministered with compound for 3 days followed by cisplatin addition on day 3 and measured 72 hrs post cisplatin administration. In kind it is functional. To be noted: time 6 day. On the set-up: scale not given: the % may be the effect or the level left.

The subject of series [11] is HK-2. The series is described as follows: Protection against cisplatin-induced nephrotoxicity in human HK-2 cells increase in viability at 10 uM preincubated with compound for 2 hrs followed by cisplatin induction and measured after 72 hrs by MTT assay (reference value: 45.1%). In kind it is functional. To be noted: time 74 hrs.
Series [12] has as its system HK-2. Nature of the series: Protection against cisplatin-induced nephrotoxicity in human HK-2 cells preincubated with compound for 2 hrs followed by cisplatin induction and measured after 72 hrs by MTT assay. To be noted: dose 1-10 µM, time 74.0 hrs. In kind it is functional, cell-based.

The source made the active and inactive calls. The rule behind the calls is not given here. Bounds are passed on as bounds.

Take `COc1c(C=O)c2c(c(OC)c1C(=O)c1ccccc1)CC1CC/C(C)=C/CC(C)(C)/C=C/CC1(C)O2` (stereo unspecified): the viability at 1 µM in the series with HK-2 [1] is 70.4%. Moreover, the result in the series on HK-2 [2] was Active. Also, the viability at 10 µM with HK-2 [3] stood at 67.9%. In [4], this molecule registered an IC50 at 72 h of more than 10 µM. The viability at 5 µM with HK-2 [5] stood at 79.2%.

With `COc1c(CO)c2c(c(OC)c1C(=O)c1ccccc1)CC1CC/C(C)=C/CC(C)(C)/C=C/CC1(C)O2` (stereo unspecified), the viability at 1 µM in the series with HK-2 [1] amounted to 51.2%. For the same molecule, the outcome with HK-2 [2] was Active. Also, in the series on HK-2 [3], the viability at 10 µM came to 83.3%. In series [4], this molecule had an IC50 at 72 h of more than 10 µM. Besides, the viability at 5 µM in the series with HK-2 [5] came to 73.6%.

For `CC12CCCC1Cc1c(O)c(C=O)c(O)c(C(=O)c3ccccc3)c1O2` (stereo unspecified), in the series on HK-2 [6], the viability at 5 µM came out at 49.6%. Besides, the viability at 10 µM in the series on HK-2 [7] was determined as 51.7%. The result in the series with HK-2 [2] was Active. In series [4], this molecule came in with an IC50 at 72 h of more than 10 µM. Further, in the series on HK-2 [8], the viability at 1 µM stood at 41.5%.

For the molecule `CC1(C)[C@H]2[C@H]3[C@@H](CC[C@]3(C)[C@@H](c3ccccc3)c3c(O)c(C=O)c(O)c(C=O)c3O)[C@](C)(O)CC[C@H]21`, the midpoint of inhibition in [9], the IC50, lay at 5 µM.

Regarding `NCCCNCCSP(=O)(O)O` [AMIFOSTINE], in series [10], the Activity came out at 28.2%.

As for `COc1c(CO)c(OC)c(C(=O)c2ccccc2)c2c1CC1CC/C(C)=C/CC(C)(C)/C=C/CC1(C)O2` (stereo unspecified), the values for the Activity with HK-2 [11] and in the series on HK-2 [12] were more than 90% and “Dose-Dependent Effect”, respectively. Moreover, the figures for the viability at 5 µM in the series on HK-2 [6] and with HK-2 [5] were 50.5% and 80.8%, respectively. Further, the values for the viability at 1 µM in the series on HK-2 [1] and in the series on HK-2 [8] were 45.7% and 39.1%, respectively. The figures for the viability at 10 µM in the series on HK-2 [7] and in the series with HK-2 [3] were 61.6% and 95.5%, respectively. Also, the result in the series on HK-2 [2] was Active. Moreover, the IC50 at 72 h in series [4] is more than 10 µM.

For the molecule `COc1c2c(c(CN3CCN(C)CC3)c(OC)c1C(=O)c1ccccc1)OC1(C)C/C=C/C(C)(C)C/C=C(\C)CCC1C2` (stereo unspecified), the viability at 1 µM with HK-2 [1] was 49.7%. Further, the outcome with HK-2 [2] was Active. Besides, the viability at 10 µM in the series on HK-2 [3] stood at 64.2%. In addition, the IC50 at 72 h in series [4] is 9.5 µM. Moreover, the viability at 5 µM in the series with HK-2 [5] was 59.6%.

For the molecule `COc1c2c(c(C(=O)c3ccccc3)c(OC)c1C(=O)O)OC1(C)C/C=C/C(C)(C)C/C=C(\C)CCC1C2` (stereo unspecified), the viability at 1 µM in the series with HK-2 [1] was found to be 48.4%. Moreover, the result in the series with HK-2 [2] was Active. Also, in the series on HK-2 [3], the viability at 10 µM came to 65%. Also, the IC50 at 72 h in series [4] is more than 10 µM. The viability at 5 µM in the series with HK-2 [5] came out at 60.4%.

With `C/C1=C\CC(C)(C)/C=C/CC2(C)Oc3c(C=O)c(O)c(C(=O)c4ccccc4)c(O)c3CC2CC1` (stereo unspecified), in the series with HK-2 [1], the viability at 1 µM stood at 61.1%. Further, the viability at 10 µM in the series on HK-2 [3] came to 42.7%. For the same molecule, inhibition in series [4] was half-maximal at 7.72 µM (IC50 at 72 h). Besides, the viability at 5 µM with HK-2 [5] stood at 66.8%.

In the case of `COc1c(CN2CCN(C)CC2)c(OC)c(C(=O)c2ccccc2)c2c1CC1CC/C(C)=C/CC(C)(C)/C=C/CC1(C)O2` (stereo unspecified), the viability at 1 µM in the series with HK-2 [1] came to 46.3%. Also, in the series on HK-2 [3], the viability at 10 µM turned out to be 47.8%. In [4], this molecule registered an IC50 at 72 h of 9.1 µM. Besides, in the series on HK-2 [5], the viability at 5 µM amounted to 57.9%.

On to `COc1c2c(c(C(=O)O)c(OC)c1C(=O)c1ccccc1)OC1(C)C/C=C/C(C)(C)C/C=C(\C)CCC1C2` (stereo unspecified), for which the viability at 1 µM in the series with HK-2 [1] was found to be 48.2%. The result with HK-2 [2] was Active. In addition, in the series with HK-2 [3], the viability at 10 µM is 68.2%. The molecule further displayed an IC50 at 72 h in series [4] of more than 10 µM. Besides, in the series on HK-2 [5], the viability at 5 µM stood at 64.4%.

With `C/C1=C\CC(C)(C)/C=C/CC2(C)Oc3c(c(O)c(C=O)c(O)c3C(=O)c3ccccc3)CC2CC1` (stereo unspecified), in the series with HK-2 [1], the viability at 1 µM is 60.3%. Moreover, the viability at 10 µM with HK-2 [3] came to 67.1%. Moreover, the IC50 at 72 h in series [4] was more than 10 µM. Besides, the viability at 5 µM in the series with HK-2 [5] stood at 70.2%.

As to `C=C1CC[C@@H]2[C@H](c3ccccc3)c3c(O)c(C=O)c(O)c(C=O)c3O[C@@]2(C)CC[C@H]2[C@H]1CC2(C)C`, the IC50 in series [9] is 5 µM.

Take `C[C@@H]1CC[C@@H]([C@@H](c2ccccc2)c2c(O)c(C=O)c(O)c(C=O)c2O)[C@]2(C)CC[C@@H](C(C)(C)O)C=C12`: inhibition in [9] was half-maximal at 5 µM (IC50).
